From patent publication US20260015358A1, “BICYCLIC DERIVATIVES, COMPOSITIONS AND USES THEREOF” (Danatlas Pharmaceuticals Co., Ltd., priority 2023, published 2026)

Assays:
[1] = target: T1, WRN [UniPro: Q14191 (WRN_HUMAN), N500-C946] (Homo sapiens (Human), UniProt Q14191); experiment: WRN unwinding assay (FORKF DNA, fluorescence); assay type: biochemical; conditions: Table 14
[2] = target: T1, WRN [UniPro: Q14191 (WRN_HUMAN), N500-C946]; experiment: WRN ATPase assay (ADP-Glo); assay type: biochemical; conditions: WRN enzymatic activity assay

T1 sequence (Q14191 500-946): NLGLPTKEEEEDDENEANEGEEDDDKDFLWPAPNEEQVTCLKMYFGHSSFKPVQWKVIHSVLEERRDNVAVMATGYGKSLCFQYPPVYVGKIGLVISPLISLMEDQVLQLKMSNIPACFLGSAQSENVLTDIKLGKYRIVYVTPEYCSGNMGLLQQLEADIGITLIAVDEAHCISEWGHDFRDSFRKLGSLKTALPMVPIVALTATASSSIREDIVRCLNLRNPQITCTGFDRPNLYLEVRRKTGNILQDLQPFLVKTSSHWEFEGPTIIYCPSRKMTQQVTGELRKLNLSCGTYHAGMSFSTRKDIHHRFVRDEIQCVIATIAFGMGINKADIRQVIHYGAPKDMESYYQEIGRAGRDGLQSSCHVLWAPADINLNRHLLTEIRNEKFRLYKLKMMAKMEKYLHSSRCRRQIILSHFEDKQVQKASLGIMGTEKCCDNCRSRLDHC

Compound | IC50 [1] [nM] | IC50 [2] [nM]
CCc1c(N2CCN(C(=O)CNC(=O)c3ccccc3)CC2)c(=O)n2nc(N3CC4(COC4)C3)nc2n1CC(=O)Nc1ccc(C(F)(F)F)cc1Cl [Example 235, N-(2-(4-(4-(2-((2-Chloro-4-(trifluoromethyl)phenyl)amino)-2-oxoethyl)-5-ethyl-7-oxo-2-(2-oxa-6-azaspiro[3.3]heptan-6-yl)-4,7-dihydro-[1,2,4]triazolo[1,5-a]pyrimidin-6-yl)piperazin-1-yl)-2-oxoethyl)benzamide] | 100 to 1000 | 100 to 1000
CCc1c(N2CCN(C(=O)CNC(=O)c3ccccc3)CC2)c(=O)n2nc(-c3cnc4c(c3)CCCO4)nc2n1CC(=O)Nc1ccc(C(F)(F)F)cc1Cl [Example 236, N-(2-(4-(4-(2-((2-Chloro-4-(trifluoromethyl)phenyl)amino)-2-oxoethyl)-2-(3,4-dihydro-2H-pyrano[2,3-b]pyridin-6-yl)-5-ethyl-7-oxo-4,7-dihydro-[1,2,4]triazolo[1,5-a]pyrimidin-6-yl)piperazin-1-yl)-2-oxoethyl)benzamide] | 100 to 1000 | 100 to 1000
CCc1c(N2CCN(C(=O)CNC(=O)c3ccccc3)CC2)c(=O)n2nc(C(C)(C)C)nc2n1CC(=O)Nc1ccc(C(F)(F)F)cc1Cl [Example 237, N-(2-(4-(2-(Tert-butyl)-4-(2-((2-chloro-4-(trifluoromethyl)phenyl)amino)-2-oxoethyl)-5-ethyl-7-oxo-4,7-dihydro-[1,2,4]triazolo[1,5-a]pyrimidin-6-yl)piperazin-1-yl)-2-oxoethyl)benzamide] | 100 to 1000 | 100 to 1000
CCc1c(N2CCN(C(=O)CNC(=O)c3ccccc3)CC2)c(=O)n2nc(C3CC3)nc2n1CC(=O)Nc1ccc(C(F)(F)F)cc1Cl [Example 238, N-(2-(4-(4-(2-((2-Chloro-4-(trifluoromethyl)phenyl)amino)-2-oxoethyl)-2-cyclopropyl-5-ethyl-7-oxo-4,7-dihydro-[1,2,4]triazolo[1,5-a]pyrimidin-6-yl)piperazin-1-yl)-2-oxoethyl)benzamide] | 100 to 1000 | 100 to 1000
CCOc1nc2n(CC(=O)Nc3ccc(C(F)(F)F)cc3Cl)c(CC)c(N3CCN(C(=O)CNC(=O)c4ccccc4F)CC3)c(=O)n2n1 [Example 239, N-(2-(4-(4-(2-((2-Chloro-4-(trifluoromethyl)phenyl)amino)-2-oxoethyl)-2-ethoxy-5-ethyl-7-oxo-4,7-dihydro-[1,2,4]triazolo[1,5-a]pyrimidin-6-yl)piperazin-1-yl)-2-oxoethyl)-2-fluorobenzamide] | 100 to 1000 | 100 to 1000
CCc1c(N2CCN(C(=O)CNC(=O)c3ccccc3F)CC2)c(=O)n2nc(SC)nc2n1CC(=O)Nc1ccc(C(F)(F)F)cc1Cl [Example 241, N-(2-(4-(4-(2-((2-Chloro-4-(trifluoromethyl)phenyl)amino)-2-oxoethyl)-5-ethyl-2-(methylthio)-7-oxo-4,7-dihydro-[1,2,4]triazolo[1,5-a]pyrimidin-6-yl)piperazin-1-yl)-2-oxoethyl)-2-fluorobenzamide] | 100 to 1000 | 100 to 1000
CCc1c(N2CCN(C(=O)CNC(=O)c3ccccc3F)CC2)c(=O)n2nc(N3CC(F)(F)C3)nc2n1CC(=O)Nc1ccc(C(F)(F)F)cc1Cl [Example 244, N-(2-(4-(4-(2-((2-Chloro-4-(trifluoromethyl)phenyl)amino)-2-oxoethyl)-2-(3,3-difluoroazetidin-1-yl)-5-ethyl-7-oxo-4,7-dihydro-[1,2,4]triazolo[1,5-a]pyrimidin-6-yl)piperazin-1-yl)-2-oxoethyl)-2-fluorobenzamide] | 100 to 1000 | < 100
CCc1c(N2CCN(C(=O)CNC(=O)c3ccccc3F)CC2)c(=O)n2nc(N3Cc4ccncc4C3)nc2n1CC(=O)Nc1ccc(C(F)(F)F)cc1Cl [Example 246, N-(2-(4-(4-(2-((2-Chloro-4-(trifluoromethyl)phenyl)amino)-2-oxoethyl)-2-(1,3-dihydro-2H-pyrrolo[3,4-c]pyridin-2-yl)-5-ethyl-7-oxo-4,7-dihydro-[1,2,4]triazolo[1,5-a]pyrimidin-6-yl)piperazin-1-yl)-2-oxoethyl)-2-fluorobenzamide] | < 100 | 100 to 1000
